Test results from patent US11786519B2, “Apoptosis-inducing agents for the treatment of cancer and immune and autoimmune diseases” (AbbVie Inc., priority 2011, dated 2023).

Target: Bcl-xL (Homo sapiens, UniProt Q07817)
Assay: TR-FRET binding assay, competition with F-Bak for Bcl-xL
Conditions: competition with F-Bak probe, GST-Bcl-xL
Protocol: Determination of the utility of compounds having Formula (I) as binders to and inhibitors of anti-apoptotic Bcl-xL proteins was performed using the Time Resolved-Fluorescence Resonance Energy Transfer (TR-FRET) Assay. Tb-anti-GST antibody was purchased from Invitrogen (Catalog No. PV4216).
The measurement of competition of compounds of the invention with F-Bak for a Bcl-2 family protein (Bcl-xL) binding site using a Time Resolved Fluorescence Resonance Energy Transfer (TR-FRET) binding assay:
Test compounds were serially diluted in DMSO starting at 50 µM (2× starting concentration; 10% DMSO) and 10 μL transferred into a 384-well plate.
The samples are then mixed on a shaker for 1 minute then incubated for an additional 2 hours at room temperature. For each assay plate, a probe/antibody and protein/antibody/probe mixture were included as a negative and a positive control, respectively. Fluorescence was measured on the ENVISION plate reader (Perkin Elmer) using a 340/35 nm excitation filter and 520/525 (F-Bak) and 495/510 nm ([…]) emission filters. Dissociation constants (Ki) were determined using Wang's equation (Wang, Z. X. An exact mathematical expression for describing competitive binding of two different ligands to a protein molecule. FEBS Lett. 1995 360:111-114). The TR-FRET assay can be performed in the presence of varying concentrations of human serum (HS) or fetal bovine serum (FBS).

Chain of Bcl-xL (Q07817 whole entry): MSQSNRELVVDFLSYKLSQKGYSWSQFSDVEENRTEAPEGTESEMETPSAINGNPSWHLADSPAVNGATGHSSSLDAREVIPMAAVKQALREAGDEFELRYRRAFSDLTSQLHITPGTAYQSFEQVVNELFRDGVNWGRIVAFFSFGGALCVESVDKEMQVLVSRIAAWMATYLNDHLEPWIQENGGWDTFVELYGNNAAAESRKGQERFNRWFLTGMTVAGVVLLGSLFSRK

SMILES	Ki [nM]
O=C(Nc1nc2ccccc2s1)c1cccc2c1CN(c1ccc(-c3cnn(CC45CC6CC(CC(C6)C4)C5)c3)c(C(=O)O)n1)CC2 [Example 1, 6-[8-(1,3-benzothiazol-2-ylcarbamoyl)-3,4-dihydroisoquinolin-2(1H)-yl]-3-{1-[tricyclo[3.3.1.1^3,7]dec-1-ylmethyl]-1H-pyrazol-4-yl}pyridine-2-carboxylic acid]	< 0.1
O=C(Nc1nc2ccccc2s1)c1cccc2c1CN(c1ccc(-c3cnn(CC4CCC5(CCC5)CC4)c3)c(C(=O)O)n1)CC2 [Example 4, 6-[8-(1,3-benzothiazol-2-ylcarbamoyl)-3,4-dihydroisoquinolin-2(1H)-yl]-3-[1-(spiro[3.5]non-7-ylmethyl)-1H-pyrazol-4-yl]pyridine-2-carboxylic acid]	0.5
O=C(Nc1nc2ccccc2s1)c1cccc2c1CN(c1ccc(-c3cnn(CC45CC6CC(CC(O)(C6)C4)C5)c3)c(C(=O)O)n1)CC2 [Example 6, 6-[8-(1,3-benzothiazol-2-ylcarbamoyl)-3,4-dihydroisoquinolin-2(1H)-yl]-3-(1-{[3-hydroxytricyclo[3.3.1.1^3,7]dec-1-yl]methyl}-1H-pyrazol-4-yl)pyridine-2-carboxylic acid]	< 0.1
COC12CC3CC(CC(Cn4cc(-c5ccc(N6CCc7cccc(C(=O)Nc8nc9ccccc9s8)c7C6)nc5C(=O)O)cn4)(C3)C1)C2 [Example 7, 6-[8-(1,3-benzothiazol-2-ylcarbamoyl)-3,4-dihydroisoquinolin-2(1H)-yl]-3-(1-{[3-methoxytricyclo[3.3.1.1^3,7]dec-1-yl]methyl}-1H-pyrazol-4-yl)pyridine-2-carboxylic acid]	< 0.1
COCCOC12CC3CC(CC(Cn4cc(-c5ccc(N6CCc7cccc(C(=O)Nc8nc9ccccc9s8)c7C6)nc5C(=O)O)cn4)(C3)C1)C2 [Example 8, 6-[8-(1,3-benzothiazol-2-ylcarbamoyl)-3,4-dihydroisoquinolin-2(1H)-yl]-3-(1-{[3-(2-methoxyethoxy)tricyclo[3.3.1.1^3,7]dec-1-yl]methyl}-1H-pyrazol-4-yl)pyridine-2-carboxylic acid]	< 0.1
O=C(Nc1nc2ccccc2s1)c1cccc2c1CN(c1ccc(-c3cnn(CC4C5CC6CC(C5)CC4C6)c3)c(C(=O)O)n1)CC2 (stereo not drawn) [Example 10, 6-[8-(1,3-benzothiazol-2-ylcarbamoyl)-3,4-dihydroisoquinolin-2(1H)-yl]-3-[1-(tricyclo[3.3.1.1^3,7]dec-2-ylmethyl)-1H-pyrazol-4-yl]pyridine-2-carboxylic acid]	< 0.1
O=C(Nc1nc2ccccc2s1)c1cccc2c1CN(c1ccc(-c3cnn(CC45CC6CC(CC(Br)(C6)C4)C5)c3)c(C(=O)O)n1)CC2 [Example 11, 6-[8-(1,3-benzothiazol-2-ylcarbamoyl)-3,4-dihydroisoquinolin-2(1H)-yl]-3-(1-{[3-bromotricyclo[3.3.1.1^3,7]dec-1-yl]methyl}-1H-pyrazol-4-yl)pyridine-2-carboxylic acid]	< 0.1
CC(C)OC12CC3CC(CC(Cn4cc(-c5ccc(N6CCc7cccc(C(=O)Nc8nc9ccccc9s8)c7C6)nc5C(=O)O)cn4)(C3)C1)C2 [Example 12, 6-[8-(1,3-benzothiazol-2-ylcarbamoyl)-3,4-dihydroisoquinolin-2(1H)-yl]-3-(1-{[3-(propan-2-yloxy)tricyclo[3.3.1.1^3,7]dec-1-yl]methyl}-1H-pyrazol-4-yl)pyridine-2-carboxylic acid]	< 0.1
O=C(Nc1nc2ccccc2s1)c1cccc2c1CN(c1ccc(-c3cnn(CC45CC6CC(CC(C6)O4)C5)c3)c(C(=O)O)n1)CC2 [Example 13, 6-[8-(1,3-benzothiazol-2-ylcarbamoyl)-3,4-dihydroisoquinolin-2(1H)-yl]-3-[1-(2-oxatricyclo[3.3.1.1^3,7]dec-1-ylmethyl)-1H-pyrazol-4-yl]pyridine-2-carboxylic acid]	< 0.1
O=C(Nc1nc2ccccc2s1)c1cccc2c1CN(c1ccc(-c3cnn(CC45CC6CC(C4)CC(N4CCOCC4)(C6)C5)c3)c(C(=O)O)n1)CC2 [Example 15, 6-[8-(1,3-benzothiazol-2-ylcarbamoyl)-3,4-dihydroisoquinolin-2(1H)-yl]-3-(1-{[3-(morpholin-4-yl)tricyclo[3.3.1.1^3,7]dec-1-yl]methyl}-1H-pyrazol-4-yl)pyridine-2-carboxylic acid]	< 0.1
Cc1c(OCC23CC4CC(CC(C4)C2)C3)cccc1-c1ccc(N2CCc3cccc(C(=O)Nc4nc5ccccc5s4)c3C2)nc1C(=O)O [Example 21, 6-[8-(1,3-benzothiazol-2-ylcarbamoyl)-3,4-dihydroisoquinolin-2(1H)-yl]-3-{2-methyl-3-[tricyclo[3.3.1.1^3,7]dec-1-ylmethoxy]phenyl}pyridine-2-carboxylic acid]	0.6
Cc1c(-c2ccc(N3CCc4cccc(C(=O)Nc5nc6ccccc6s5)c4C3)nc2C(=O)O)ccnc1OCC12CC3CC(CC(C3)C1)C2 [Example 27, 6-[8-(1,3-benzothiazol-2-ylcarbamoyl)-3,4-dihydroisoquinolin-2(1H)-yl]-3′-methyl-2′-(tricyclo[3.3.1.1^3,7]dec-1-ylmethoxy)-3,4′-bipyridine-2-carboxylic acid]	0.1
Cc1c(-c2ccc(N3CCc4cccc(C(=O)Nc5nc6ncccc6s5)c4C3)nc2C(=O)O)cnn1CC12CC3CC(CC(C3)C1)C2 [Example 30, 3-[5-methyl-1-(tricyclo[3.3.1.1^3,7]dec-1-ylmethyl)-1H-pyrazol-4-yl]-6-[8-([1,3]thiazolo[4,5-b]pyridin-2-ylcarbamoyl)-3,4-dihydroisoquinolin-2(1H)-yl]pyridine-2-carboxylic acid]	< 0.1
Cc1c(-c2ccc(N3CCc4cccc(C(=O)Nc5nc6ccccc6s5)c4C3)nc2C(=O)O)cc(C#N)n1CCC12CC3CC(CC(C3)C1)C2 [Example 34, 6-[8-(1,3-benzothiazol-2-ylcarbamoyl)-3,4-dihydroisoquinolin-2(1H)-yl]-3-{5-cyano-2-methyl-1-[2-(tricyclo[3.3.1.1^3,7]dec-1-yl)ethyl]-1H-pyrrol-3-yl}pyridine-2-carboxylic acid]	0.4
COC12CC3(C)CC(C)(CC(Cn4ncc(-c5ccc(N6CCc7cccc(C(=O)Nc8nc9ccccc9s8)c7C6)nc5C(=O)O)c4C)(C3)C1)C2 [Example 38, 6-[8-(1,3-benzothiazol-2-ylcarbamoyl)-3,4-dihydroisoquinolin-2(1H)-yl]-3-(1-{[3-methoxy-5,7-dimethyltricyclo[3.3.1.1^3,7]dec-1-yl]methyl}-5-methyl-1H-pyrazol-4-yl)pyridine-2-carboxylic acid]	< 0.1
COC12CC3CC(CC(Cn4ncc(-c5ccc(N6CCc7cccc(C(=O)Nc8nc9ccccc9s8)c7C6)nc5C(=O)NS(=O)(=O)N5CCOCC5)c4C)(C3)C1)C2 [Example 39, N-(1,3-benzothiazol-2-yl)-2-{5-(1-{[3-methoxytricyclo[3.3.1.1^3,7]dec-1-yl]methyl}-5-methyl-1H-pyrazol-4-yl)-6-[(morpholin-4-ylsulfonyl)carbamoyl]pyridin-2-yl}-1,2,3,4-tetrahydroisoquinoline-8-carboxamide]	12
COC12CC3CC(CC(Cn4ncc(-c5ccc(N6CCc7cccc(C(=O)Nc8nc9ccccc9s8)c7C6)nc5C(=O)NS(=O)(=O)C5CC5)c4C)(C3)C1)C2 [Example 41, N-(1,3-benzothiazol-2-yl)-2-{6-[(cyclopropylsulfonyl)carbamoyl]-5-(1-{[3-methoxytricyclo[3.3.1.1^3,7]dec-1-yl]methyl}-5-methyl-1H-pyrazol-4-yl)pyridin-2-yl}-1,2,3,4-tetrahydroisoquinoline-8-carboxamide]	< 0.1
O=C(Nc1nc2ccccc2s1)c1cccc2c1CN(c1ccc(-c3cnn(CC45CC6CC(CC(C6)C4)C5)c3Cl)c(C(=O)O)n1)CC2 [Example 42, 6-[8-(1,3-benzothiazol-2-ylcarbamoyl)-3,4-dihydroisoquinolin-2(1H)-yl]-3-{5-chloro-1-[tricyclo[3.3.1.1^3,7]dec-1-ylmethyl]-1H-pyrazol-4-yl}pyridine-2-carboxylic acid]	0.3
N#Cc1c(NC23CC4CC(CC(C4)C2)C3)cccc1-c1ccc(N2CCc3cccc(C(=O)Nc4nc5ccccc5s4)c3C2)nc1C(=O)O [Example 47, 6-[8-(1,3-benzothiazol-2-ylcarbamoyl)-3,4-dihydroisoquinolin-2(1H)-yl]-3-{2-cyano-3-[tricyclo[3.3.1.1^3,7]dec-1-ylamino]phenyl}pyridine-2-carboxylic acid]	0.2
Cc1c(NC(=O)C23CC4CC(CC(C4)C2)C3)cccc1-c1ccc(N2CCc3cccc(C(=O)Nc4nc5ccccc5s4)c3C2)nc1C(=O)O [Example 50, 6-[8-(1,3-benzothiazol-2-ylcarbamoyl)-3,4-dihydroisoquinolin-2(1H)-yl]-3-(2-methyl-3-{[tricyclo[3.3.1.1^3,7]dec-1-ylcarbonyl]amino}phenyl)pyridine-2-carboxylic acid]	9
Cc1c(-c2ccc(N3CCc4cccc(C(=O)Nc5nc6ccccc6s5)c4C3)nc2C(=O)O)cccc1S(=O)(=O)NC12CC3CC(CC(C3)C1)C2 [Example 51, 6-[8-(1,3-benzothiazol-2-ylcarbamoyl)-3,4-dihydroisoquinolin-2(1H)-yl]-3-{2-methyl-3-[tricyclo[3.3.1.1^3,7]dec-1-ylsulfamoyl]phenyl}pyridine-2-carboxylic acid]	0.3
